Test [1] addresses T1, glutathione S-transferase (GST)-linked full-length human Syk protein (Homo sapiens, UniProt P43405).
T1 construct: glutathione S-transferase (GST)-linked full-length human Syk protein; purchased Carna Biosciences; host or cells: Baculovirus expression system
Briefly: Syk enzyme assay. It counts as biochemical. The note with it: 0.83 nM Syk, time-resolved fluorescence; read-out: IC50 of Syk-inhibitory activity. An outline of the steps:
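Phosphotyrosine on a biotin-peptide substrate (0.5 μM) was read by time-resolved fluorescence at 615 and 665 nm with Eu-anti-pTyr antibody and APC-streptavidin after 1 h EDTA stop.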

Test [2] deals with THP-1 cells (phagocytosis of opsonized Escherichia coli). Briefly: Antibody-dependent phagocytosis assay. The class given is cell-based. The note with it: Homo sapiens; IFNγ differentiated THP-1 cells, opsonized pHrodo Escherichia coli, 3 hours; read-out: IC50 upon phagocytosis inhibition. Here is the method: THP-1 cells (2×10^5 cells/ml), which were human monocytoid cells, were cultured in the presence of 10 ng/ml IFNγ for 2 days, and they were induced to differentiate into macrophage-like cells. The differentiation-induced THP-1 cells were recovered, and the cells (5×10^4 cells/well) were then allowed to react with a predetermined concentration of test compound at room temperature for 30 minutes. Thereafter, Escherichia coli (Life Technologies) labeled with a pH-sensitive dye (pHrodo) was subjected to opsonization using an anti-Escherichia coli antibody (Life Technologies). Then, the resultant was added to the THP-1 cells obtained above, followed by incubation at 37° C. for 3 hours. Opsonized Escherichia coli and cell-permeable fluorescent dye (Calcein AM) were simultaneously added thereto, followed by quantitative determination of phagocytosis of opsonized Escherichia coli in viable cells using an IN Cell Analyzer.

Broadly, the IC50 is the midpoint of a concentration-inhibition curve.

Consider `CC[C@@H](Nc1nc(Nc2cncc3c2cnn3CC)c(C(N)=O)cc1F)[C@H](C)N` [Example 2-318, 6-(((2S,3R)-2-aminopentan-3-yl)amino)-2-((1-ethyl-1H-pyrazolo[3,4-c]pyridin-4-yl)amino)-5-fluoronicotinamide], for which the values for the IC50 in test [1] and in test [2] were less than 10 nM and 1000 to 3000 nM, respectively.
On the same counts, the results for `CC(C)C[C@@H](Nc1nc(Nc2cnc3c(c2)c(N(C)C)nn3C)c(C(N)=O)cc1F)[C@H](C)N` [Example 2-292, 6-(((2S,3R)-2-amino-5-methylhexan-3-yl)amino)-2-((3-(dimethylamino)-1-methyl-1H-pyrazolo[3,4-b]pyridin-5-yl)amino)-5-fluoronicotinamide] are less than 10 nM and 1000 to 3000 nM.
On the same counts, the results for `CCC[C@@H](Nc1nc(Nc2cccc3c2cnn3CCOC)c(C(N)=O)cc1F)[C@H](C)N` [Example 2-305, 6-(((2S,3R)-2-aminohexan-3-yl)amino)-5-fluoro-2-((1-(2-methoxyethyl)-1H-indazol-4-yl)amino)nicotinamide] are less than 10 nM and 1000 to 3000 nM.
On the same counts, the results for `NC(=O)c1cc(F)c(N[C@@H]2CCOC[C@@H]2N)nc1Nc1cnc(N2CCOCC2)c(F)c1` [Example 2-217, 6-(((3R,4R)-3-aminotetrahydro-2H-pyran-4-yl)amino)-5-fluoro-2-((5-fluoro-6-morpholinopyridin-3-yl)amino)nicotinamide] are 50 to 100 nM and 1000 to 3000 nM.
Consider `COCCn1nc(OC)c2cc(Nc3nc(N[C@H](COC)[C@H](C)N)c(F)cc3C(N)=O)ccc21` [Example 2-128, 6-(((2S,3S)-3-amino-1-methoxybutan-2-yl)amino)-5-fluoro-2-((3-methoxy-1-(2-methoxyethyl)-1H-indazol-5-yl)amino)nicotinamide], for which the IC50 lay in the range of 10 to 50 nM in test [1] and 1000 to 3000 nM in test [2].
Take `COCCOc1cc(Nc2nc(N[C@H](Cc3ccccc3)[C@H](C)N)c(F)cc2C(N)=O)ccn1` [Example 2-427, 6-(((2R,3S)-3-amino-1-phenylbutan-2-yl)amino)-5-fluoro-2-((2-(2-methoxyethoxy)pyridin-4-yl)amino)nicotinamide]: the IC50 lay within 10 to 50 nM in test [1] and 1000 to 3000 nM in test [2].
Regarding `CCOC[C@@H](Nc1nc(Nc2cncc3c2cnn3CC)c(C(N)=O)cc1F)[C@H](C)N` [Example 2-324, 6-(((2S,3S)-3-amino-1-ethoxybutan-2-yl)amino)-2-((1-ethyl-1H-pyrazolo[3,4-c]pyridin-4-yl)amino)-5-fluoronicotinamide], the IC50 was 10 to 50 nM in test [1] and less than 1000 nM in test [2].
For `CC[C@H](N)[C@@H](CC)Nc1nc(Nc2ccc3c(c2)c(OC)nn3C)c(C(N)=O)cc1F` [Example 2-85, 6-(((3R,4S)-4-aminohexan-3-yl)amino)-5-fluoro-2-((3-methoxy-1-methyl-1H-indazol-5-yl)amino)nicotinamide], in that order: 10 to 50 nM and less than 1000 nM.
As for `Cc1ncc(Nc2nc(N[C@H](c3ccccc3)[C@H](C)N)c(F)cc2C(N)=O)cc1-n1nccn1` [Example 2-313, 6-(((1R,2S)-2-amino-1-phenylpropyl)amino)-5-fluoro-2-((6-methyl-5-(2H-1,2,3-triazol-2-yl)pyridin-3-yl)amino)nicotinamide], the IC50 in test [1] is less than 10 nM; in test [2], 3000 to 6000 nM.
On the same counts, the results for `C[C@H](N)[C@H](Nc1nc(Nc2ccc3ncccc3c2)c(C(N)=O)cc1F)c1ccccc1` [Example 2-312, 6-(((1R,2S)-2-amino-1-phenylpropyl)amino)-5-fluoro-2-(quinolin-6-ylamino)nicotinamide] are less than 10 nM and less than 1000 nM.
With `CCn1ncc2c(Nc3nc(N[C@@H](CN)CC(C)C)c(F)cc3C(N)=O)cncc21` [Example 2-405, (R)-6-((1-amino-4-methylpentan-2-yl)amino)-2-((1-ethyl-1H-pyrazolo[3,4-c]pyridin-4-yl)amino)-5-fluoronicotinamide], the IC50 in test [1] is less than 10 nM; in test [2] it was 1000 to 3000 nM.
`CCC[C@@H](Nc1nc(Nc2ccc3c(c2)c(OC(F)F)nn3C)c(C(N)=O)cc1F)[C@H](C)N` [Example 2-349, 6-(((2S,3R)-2-aminohexan-3-yl)amino)-2-((3-(difluoromethoxy)-1-methyl-1H-indazol-5-yl)amino)-5-fluoronicotinamide]: the IC50 in test [1] was less than 10 nM; in test [2] it was 1000 to 3000 nM.
On the same counts, the results for `Cc1ncc(Nc2nc(N[C@@H]([C@H](C)N)[C@H]3CC3(C)C)c(F)cc2C(N)=O)cc1-n1nccn1` [Example 2-380, 6-(((1R,2S)-2-amino-1-((S)-2,2-dimethylcyclopropyl)propyl)amino)-5-fluoro-2-((6-methyl-5-(2H-1,2,3-triazol-2-yl)pyridin-3-yl)amino)nicotinamide] are less than 10 nM and 1000 to 3000 nM.
Take `COC[C@@H](Nc1nc(Nc2cnc(C)c(-n3nccn3)c2)c(C(N)=O)cc1F)[C@H](C)N` [Example 2-197, 6-(((2S,3S)-3-amino-1-methoxybutan-2-yl)amino)-5-fluoro-2-((6-methyl-5-(2H-1,2,3-triazol-2-yl)pyridin-3-yl)amino)nicotinamide]: the values for the IC50 in test [1] and in test [2] were 10 to 50 nM and 3000 to 6000 nM, respectively.
`NC(=O)c1cc(F)c(N[C@@H]2CCCC[C@@H]2N)nc1Nc1cncc2c1cnn2CC(F)F` [Example 2-393, 6-(((1R,2S)-2-aminocyclohexyl)amino)-2-((1-(2,2-difluoroethyl)-1H-pyrazolo[3,4-c]pyridin-4-yl)amino)-5-fluoronicotinamide]: the results for the IC50 in test [1] and in test [2] were less than 10 nM and 1000 to 3000 nM, respectively.
Regarding `CCn1nc(OC)c2cc(Nc3nc(N[C@H](CC4CC4)[C@H](C)N)c(F)cc3C(N)=O)ccc21` [Example 2-50, 6-(((2R,3S)-3-amino-1-cyclopropylbutan-2-yl)amino)-2-((1-ethyl-3-methoxy-1H-indazol-5-yl)amino)-5-fluoronicotinamide], the IC50 in test [1] was less than 10 nM; in test [2], less than 1000 nM.
As for `COCCn1nc(OC)c2cc(Nc3nc(N[C@@H](CN)CC(C)C)c(F)cc3C(N)=O)ccc21` [Example 2-124, (R)-6-((1-amino-4-methylpentan-2-yl)amino)-5-fluoro-2-((3-methoxy-1-(2-methoxyethyl)-1H-indazol-5-yl)amino)nicotinamide], the IC50 is less than 10 nM in test [1] and less than 1000 nM in test [2].
For the compound `NC(=O)c1cc(F)c(N[C@@H]2CCCC[C@@H]2N)nc1Nc1cnc(OC(F)F)c(-n2nccn2)c1` [Example 2-238, 6-(((1R,2S)-2-aminocyclohexyl)amino)-2-((6-(difluoromethoxy)-5-(2H-1,2,3-triazol-2-yl)pyridin-3-yl)amino)-5-fluoronicotinamide], the IC50 was 10 to 50 nM in test [1] and less than 1000 nM in test [2].
With `COc1ccc([C@@H](Nc2nc(Nc3cnc(C)c(-n4nccn4)c3)c(C(N)=O)cc2F)[C@H](C)N)cc1` [Example 2-338, 6-(((1R,2S)-2-amino-1-(4-methoxyphenyl)propyl)amino)-5-fluoro-2-((6-methyl-5-(2H-1,2,3-triazol-2-yl)pyridin-3-yl)amino)nicotinamide], the values for the IC50 in test [1] and in test [2] were 10 to 50 nM and less than 1000 nM, respectively.
Turning to `NC(=O)c1cc(F)c(N[C@@H]2CCOC[C@@H]2N)nc1Nc1ccnc(N2CCOCC2)c1F` [Example 2-231, 6-(((3R,4R)-3-aminotetrahydro-2H-pyran-4-yl)amino)-5-fluoro-2-((3-fluoro-2-morpholinopyridin-4-yl)amino)nicotinamide], the concentration for half-maximal inhibition (IC50) was 10 to 50 nM in test [1] and 1000 to 3000 nM in test [2].
On to `NC(=O)c1cc(F)c(N[C@@H]2CCOC[C@@H]2N)nc1Nc1cncc2c1cnn2CC(F)F` [Example 2-394, 6-(((3R,4R)-3-aminotetrahydro-2H-pyran-4-yl)amino)-2-((1-(2,2-difluoroethyl)-1H-pyrazolo[3,4-c]pyridin-4-yl)amino)-5-fluoronicotinamide], for which the IC50 is less than 10 nM in test [1] and 3000 to 6000 nM in test [2].
Turning to `CCCC[C@@H](Nc1nc(Nc2cncc3c2cnn3CC(F)F)c(C(N)=O)cc1F)[C@H](C)N` [Example 2-399, 6-(((2S,3R)-2-aminoheptan-3-yl)amino)-2-((1-(2,2-difluoroethyl)-1H-pyrazolo[3,4-c]pyridin-4-yl)amino)-5-fluoronicotinamide], the figures for the IC50 in test [1] and in test [2] were less than 10 nM and 1000 to 3000 nM, respectively.
On the same counts, the results for `CSCC[C@@H](Nc1nc(Nc2cnc(C)c(-n3nccn3)c2)c(C(N)=O)cc1F)[C@H](C)N` [Example 2-343, 6-(((3R,4S)-4-amino-1-(methylthio)pentan-3-yl)amino)-5-fluoro-2-((6-methyl-5-(2H-1,2,3-triazol-2-yl)pyridin-3-yl)amino)nicotinamide] are 10 to 50 nM and 1000 to 3000 nM.
As to `CC(C)C[C@@H](Nc1nc(Nc2cc(N3CCOCC3)ncc2F)c(C(N)=O)cc1F)[C@H](C)N` [Example 2-236, 6-(((2S,3R)-2-amino-5-methylhexan-3-yl)amino)-5-fluoro-2-((5-fluoro-2-morpholinopyridin-4-yl)amino)nicotinamide], the IC50 was in the range of 10 to 50 nM in test [1] and 1000 to 3000 nM in test [2].

The record behind these values is US9051310B2, “Nicotinamide derivative or salt thereof” (FUJIFILM Corporation, priority 2011, dated 2015).
